In PubChem BioAssay AID2060615 (Molecular Pharmacology Branch, DTP, NCI, 2025):

Tested on: 496974-208-R-J2-PDC complex spheroids, growth % test/control
Experiment: Anticancer human tumor 496974-208-R-J2-PDC patient-derived pancreatic carcinoma cell line growth inhibition [CLK]
Conditions: for IC50: curve of first compound; for viability, T/C: stronger effect = lower value
How it was run: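 Multi-cell-type spheroids combined patient-derived tumor cells with HUVEC endothelial cells and human mesenchymal stem cells. Paired agents were dosed in half-log steps down from about clinical Cmax, or from 10 microM where Cmax was unknown.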

[1] = second compound 0.0316 µM, first compound 0.0316 µM
[2] = second compound 0.0316 µM, first compound 0.1 µM
[3] = second compound 0.0316 µM, first compound 0.316 µM
[4] = second compound 0.0316 µM, first compound 1 µM
[5] = second compound 0.1 µM, first compound 0.0316 µM
[6] = second compound 0.1 µM, first compound 0.1 µM
[7] = second compound 0.1 µM, first compound 0.316 µM
[8] = second compound 0.1 µM, first compound 1 µM
[9] = second compound 0.316 µM, first compound 0.0316 µM
[10] = second compound 0.316 µM, first compound 0.1 µM
[11] = second compound 0.316 µM, first compound 0.316 µM
[12] = second compound 0.316 µM, first compound 1 µM
[13] = second compound 1 µM, first compound 0.0316 µM
[14] = second compound 1 µM, first compound 0.1 µM
[15] = second compound 1 µM, first compound 0.316 µM
[16] = second compound 1 µM, first compound 1 µM
[17] = second compound 3.16 µM, first compound 0.0316 µM
[18] = second compound 3.16 µM, first compound 0.1 µM
[19] = second compound 3.16 µM, first compound 0.316 µM
[20] = second compound 3.16 µM, first compound 1 µM
[21] = second compound 10 µM, first compound 0.0316 µM
[22] = second compound 10 µM, first compound 0.1 µM
[23] = second compound 10 µM, first compound 0.316 µM
[24] = second compound 10 µM, first compound 1 µM
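Also: spheroids exposed to the drugs for 7 days before readout.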
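For viability, T/C in this document: 100% = DMSO vehicle control wells.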

CC1COCCN1c1cc(C2(S(C)(=N)=O)CC2)nc(-c2ccnc3[nH]ccc23)n1 (centres undefined) + CNC(=O)c1ccc(Nc2nc(OC3CCCC3)c3c(-c4ccc5nc(C)oc5c4)c[nH]c3n2)c(OC)c1
IC50 (second compound 0.0316 µM): 6.5 µM | IC50 (second compound 0.1 µM): 5.52 µM | IC50 (second compound 0.316 µM): 4.78 µM | IC50 (second compound 1 µM): 2.15 µM | IC50 (second compound 3.16 µM): 0.953 µM | IC50 (second compound 10 µM): 0.971 µM | viability, T/C [1]: 101% | viability, T/C [2]: 98.3% | viability, T/C [3]: 91.2% | viability, T/C [4]: 83.2% | viability, T/C (second compound 0.0316 µM, first compound 3.16 µM): 62.8% | viability, T/C (second compound 0.0316 µM, first compound 10 µM): 42.1% | viability, T/C [5]: 87.2% | viability, T/C [6]: 78.4% | viability, T/C [7]: 77.1% | viability, T/C [8]: 74.4% | viability, T/C (second compound 0.1 µM, first compound 3.16 µM): 53.5% | viability, T/C (second compound 0.1 µM, first compound 10 µM): 43% | viability, T/C [9]: 72.6% | viability, T/C [10]: 69.3% | viability, T/C [11]: 79% | viability, T/C [12]: 80% | viability, T/C (second compound 0.316 µM, first compound 3.16 µM): 56.4% | viability, T/C (second compound 0.316 µM, first compound 10 µM): 38.7% | viability, T/C [13]: 73.8% | viability, T/C [14]: 66.8% | viability, T/C [15]: 71% | viability, T/C [16]: 62.8% | viability, T/C (second compound 1 µM, first compound 3.16 µM): 43.5% | viability, T/C (second compound 1 µM, first compound 10 µM): 32.6% | viability, T/C [17]: 63.7% | viability, T/C [18]: 63.2% | viability, T/C [19]: 54.6% | viability, T/C [20]: 52.5% | viability, T/C (second compound 3.16 µM, first compound 3.16 µM): 36.9% | viability, T/C (second compound 3.16 µM, first compound 10 µM): 27.6% | viability, T/C [21]: 51.8% | viability, T/C [22]: 58% | viability, T/C [23]: 54.5% | viability, T/C [24]: 49.8% | viability, T/C (second compound 10 µM, first compound 3.16 µM): 31.9% | viability, T/C (second compound 10 µM, first compound 10 µM): 21.8%

CCc1c2c(nc3ccc(O)cc13)-c1cc3c(c(=O)n1C2)COC(=O)[C@]3(O)CC + CNC(=O)c1ccc(Nc2nc(OC3CCCC3)c3c(-c4ccc5nc(C)oc5c4)c[nH]c3n2)c(OC)c1
IC50 (second compound 0.0316 µM): 0.0152 µM | IC50 (second compound 0.1 µM): 0.0127 µM | IC50 (second compound 0.316 µM): 0.0126 µM | IC50 (second compound 1 µM): 0.0112 µM | IC50 (second compound 3.16 µM): 0.00484 µM | IC50 (second compound 10 µM): < 0.00316 µM | viability, T/C (second compound 0.0316 µM, first compound 0.00316 µM): 70.7% | viability, T/C (second compound 0.0316 µM, first compound 0.01 µM): 56.9% | viability, T/C [1]: 38.6% | viability, T/C [2]: 19% | viability, T/C [3]: 12.1% | viability, T/C [4]: 3.81% | viability, T/C (second compound 0.1 µM, first compound 0.00316 µM): 67.8% | viability, T/C (second compound 0.1 µM, first compound 0.01 µM): 54% | viability, T/C [5]: 36% | viability, T/C [6]: 21.2% | viability, T/C [7]: 9.65% | viability, T/C [8]: 2.79% | viability, T/C (second compound 0.316 µM, first compound 0.00316 µM): 69.8% | viability, T/C (second compound 0.316 µM, first compound 0.01 µM): 53.5% | viability, T/C [9]: 35% | viability, T/C [10]: 19.2% | viability, T/C [11]: 7.42% | viability, T/C [12]: 3.21% | viability, T/C (second compound 1 µM, first compound 0.00316 µM): 60.5% | viability, T/C (second compound 1 µM, first compound 0.01 µM): 52.6% | viability, T/C [13]: 31.2% | viability, T/C [14]: 13.5% | viability, T/C [15]: 5.29% | viability, T/C [16]: 2.81% | viability, T/C (second compound 3.16 µM, first compound 0.00316 µM): 54.4% | viability, T/C (second compound 3.16 µM, first compound 0.01 µM): 42.6% | viability, T/C [17]: 25.6% | viability, T/C [18]: 12.9% | viability, T/C [19]: 4.63% | viability, T/C [20]: 2.2% | viability, T/C (second compound 10 µM, first compound 0.00316 µM): 50% | viability, T/C (second compound 10 µM, first compound 0.01 µM): 38.9% | viability, T/C [21]: 24.4% | viability, T/C [22]: 11.9% | viability, T/C [23]: 3.68% | viability, T/C [24]: 6.41%
